Laboratory results as given in patent US9512090B2, “Tetrazolinone compound and use thereof” (Sumitomo Chemical Company, Limited, priority 2013, dated 2016).

Legend:
[1] = tested on: cucumber powdery mildew fungus (Sphaerotheca fuliginea); test: Test Example 6 and Comparative Test Example: cucumber powdery mildew control by foliar spray; type: in vivo; conditions: 500 ppm spray on cucumber (SAGAMI HANJIRO); 8 days after inoculation
[2] = tested on: common house mosquito (Culex pipiens pallens); test: Test Example 12: common house mosquito larvae mortality in treated water; type: in vivo; conditions: active ingredient 3.5 ppm in water; last instar larvae; after 8 days
Procedure: A water dilution containing a surfactant prepared by adjusting so as to contain a predetermined concentration (500 ppm) of any one compound of the present compounds 20, 29, and 79 was used as a test chemical solution.
The above test chemical solution (0.7 mL) was added to 100 mL of deionized water to adjust the concentration of an active ingredient to 3.5 ppm. Twenty (20) heads of last instar larvae of common house mosquito (Culex pipiens pallens) were released in the solution and the number of dead insects was counted after 8 days.
Mortality was determined by the following equation. Mortality (%)=(number of dead insects/number of test insects)×100

Cc1ccc(OCc2ccccc2-n2nnn(C)c2=O)cc1 [1-{2-(4-methylphenoxymethyl)phenyl}-4-methyl-1,4-dihydrotetrazol-5-one]
area of lesion spots on the treated plant relative to that on an untreated plant [1]: ≥ 70%

COc1ccccc1-c1ccc(OCc2c(OC)cccc2-n2nnn(C)c2=O)c(C)c1 [compound 20]
mortality [2]: 100%

CCN(c1ccccc1)c1ccc(OCc2c(C)cccc2-n2nnn(C)c2=O)c(C)c1 [compound 79]
mortality [2]: 100%

Cc1cc(OCc2c(C)cccc2-n2nnn(C)c2=O)ccc1-c1ccccc1 [compound 29]
mortality [2]: 100%
